Results taken from patent publication US20030176465A1, “Cyclic amino acid derivatives” (priority 2000, published 2003).
Structures can show the parent of a compound that is named as a salt.

Experiments:
factor Xa, human = factor Xa, human (Homo sapiens, UniProt P00742); test: Inhibition of factor Xa (IC50, headed 'Affinity to Receptors'); assay type: biochemical
Text: The inhibition of factor Xa by the compounds according to the invention and the measurement of the anticoagulant and antithrombotic activity can be determined by conventional in-vitro or in-vivo methods. A suitable method is described, for example, by J. Hauptmann et al. in Thrombosis and Haemostasis 1990, 63, 220-223.
The inhibition of factor Xa can be measured, for example, by the method of T. Hara et al. in Thromb. Haemostas. 1994, 71, 314-319.

TF/VIIa = TF/VIIa (Homo sapiens, UniProt P08709); test: Inhibition of TF/VIIa (IC50, headed 'Affinity to Receptors'); assay type: biochemical
Text: The inhibition of factor VIIa by the compounds according to the invention and the measurement of the anticoagulant and antithrombotic activity can be determined by conventional in-vitro or in-vivo methods. A conventional method for the measurement of the inhibition of factor VIIa is described, for example, by H. F. Ronning et al. in Thrombosis Research 1996, 84, 73-81.

factor Xa, human, sequence (P00742 235-488 limits assumed): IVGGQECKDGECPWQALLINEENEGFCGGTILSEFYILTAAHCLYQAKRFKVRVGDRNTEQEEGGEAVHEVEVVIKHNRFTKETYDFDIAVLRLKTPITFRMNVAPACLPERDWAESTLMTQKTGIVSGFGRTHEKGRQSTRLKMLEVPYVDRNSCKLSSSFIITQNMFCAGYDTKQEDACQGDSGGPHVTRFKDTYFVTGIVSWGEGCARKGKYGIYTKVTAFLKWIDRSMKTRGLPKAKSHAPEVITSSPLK
factor Xa, human, sequence (P00742 41-179 limits assumed): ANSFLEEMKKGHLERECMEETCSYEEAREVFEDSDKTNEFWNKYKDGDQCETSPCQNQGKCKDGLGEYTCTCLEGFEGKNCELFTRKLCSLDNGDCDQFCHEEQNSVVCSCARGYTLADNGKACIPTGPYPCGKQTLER
TF/VIIa, sequence (P08709 213-466 limits assumed): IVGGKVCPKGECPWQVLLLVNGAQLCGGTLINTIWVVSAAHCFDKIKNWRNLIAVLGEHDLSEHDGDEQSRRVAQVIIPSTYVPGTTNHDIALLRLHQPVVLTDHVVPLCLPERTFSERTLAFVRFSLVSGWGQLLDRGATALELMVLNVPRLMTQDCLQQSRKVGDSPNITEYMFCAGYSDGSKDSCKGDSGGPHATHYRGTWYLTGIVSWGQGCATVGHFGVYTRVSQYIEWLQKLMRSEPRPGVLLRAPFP
TF/VIIa, sequence (P08709 61-212 limits assumed): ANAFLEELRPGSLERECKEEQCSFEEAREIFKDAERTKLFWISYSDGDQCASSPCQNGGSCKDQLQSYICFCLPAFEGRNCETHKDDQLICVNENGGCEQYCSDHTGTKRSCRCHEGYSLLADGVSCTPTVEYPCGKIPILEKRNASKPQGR
TF/VIIa, sequence (P13726 33-295 partner): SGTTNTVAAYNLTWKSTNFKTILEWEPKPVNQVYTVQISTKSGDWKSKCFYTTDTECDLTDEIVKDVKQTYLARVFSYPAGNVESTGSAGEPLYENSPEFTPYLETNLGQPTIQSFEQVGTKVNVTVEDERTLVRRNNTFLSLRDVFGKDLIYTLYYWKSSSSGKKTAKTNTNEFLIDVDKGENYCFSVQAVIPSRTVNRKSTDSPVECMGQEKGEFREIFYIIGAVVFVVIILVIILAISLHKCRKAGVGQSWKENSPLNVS

In the case of Nc1nc(F)c(F)c(N2CCC[C@H]2C(=O)Nc2ccc(-c3ccccc3S(N)(=O)=O)cc2)c1F (as salt: trifluoroacetate) [AF, N-(2′-sulfamoylbiphenyl-4-yl)-(2S)-1-(2-amino-3,5,6-trifluoropyridin-4-yl)pyrrolidine-2-carboxamide, trifluoroacetate], the melting point is reported as 180 °C (dec.).

For NC(=NO)c1cccc(N2CCCCC2C(=O)Nc2ccc(-c3ccccc3S(N)(=O)=O)cc2)c1 [DA, N-(2′-sulfamoylbiphenyl-4-yl)-(2R,S)-1-[3-(N-hydroxyamidino)phenyl]piperidine-2-carboxamide], the IC50 (factor Xa, human) was 340 nM, the IC50 (TF/VIIa) was 440 nM and the melting point was 98 °C (dec.).
